Data from patent EP2346328B1, “USE OF COSTIC ACID OR EXTRACTS OF DITTRICHIA VISCOSA AGAINST VARROA DESTRUCTOR” (Katerinopoulos, E. Haralambos, priority 2008, dated 2009).

Key:
V. destructor = test: In vivo vial experiments with V. destructor: mite mortality on exposure to treated filter paper; design: species or system Varroa destructor
Procedure: In vivo Experiments with V. destructor. The mites (V. destructor) were collected from colonies of A. mellifera. For mite collection two different methods were used: The first method involved removal of the mites from infected adult bees using a soft brush with the help of a stereoscope. In method b) infected adult honeybees were transferred directly from bee frames into a wire-screen cylinder. Then the cylinder was placed inside a second Plexiglas cylinder and CO2 was released for 5 min with a flow rate of 5 l/min causing anaesthesia to the mites (as well as to the bees). The whole apparatus was then shaken several times to separate the mites from the bees. In a few minutes they had recovered from the effect of the anaesthesia.^39
Using a stereoscope binocular set varroa was placed in 20 mL glass vials. Stock solutions of the extraction materials were prepared in acetone in 10 mg/mL concentrations. In each experiment 20, 60, or 100 microliter aliquots of the stock solution were placed on filter paper adjusted to the cups of 20 ml vials, each containing five living mites. Acetone was used in the control experiments which were performed in five replicates. In both cases the solvent was allowed to evaporate before covering the vials. The vials were kept in an incubator at 37 C. Mortality of mites was recorded under a stereoscope binocular set after 5, 8, 12, and 19 hours.

[1] = Cytotoxicity assay in human cells (WST-1); type: cell-based; settings: HUVEC, 24 h exposure, WST-1 absorbance after 4h and 24h, read-out: concentrations at which not cytotoxic
Procedure: Example 4.Cytotoxicity assays in human cells. Cytotoxicity of costic acid was measured in human umbilical vein endothelial cells (HUVEC), using the Cell Proliferation Reagent WST-1 (Cat. No. 13396300, Roche). The assay was performed according to the instructions protocol. Cells (7500 per well) were exposed to different concentrations of costic acid for 24 h before adding the WST-1 reagent. After 4h and again after 24h the absorbance was measured using an Optimax UV/VIS spectrometer (wavelengths: 440nm and 650nm). Costic acid was not cytotoxic at concentrations up to 230 micromolar.

varroa = test: Field tests on bee populations: count of dead varroa after spraying; type: in vivo, Varroa destructor; settings: after ten days; commercial acaricides; sprayed directly on the bees (100 mL per group, oxalic acid 70 mL)
Procedure: Example 5. Field Tests on bee populations. Field test were conducted using 40 bees on each trial at various locations on the island of Crete such as the Lassithi Plateau and the Messara Plains. In the field tests, Group B' extract was used in a solution of 1 g of this extract in 1 ml ethanol that was further diluted with water to a total volume of 1 L. A second solution was prepared as described above, using 2 g of Group B' mixture. For comparison purposes, each bee population was divided in […] groups. Two of these groups were treated with commercial acaricides A fifth, control group, was sprayed with deionized water. As known acaricide preparations were used a) BAYVAROL (active ingredient: Flumethrine) and b) a 4% solution of oxalic acid in 50% sugar solution. The total volume of solutions that were sprayed directly on the bees was 100 mL per group. In the case of the oxalic acid solution, the volume was 70 mL. Dead varroa was collected on a sheet of paper covered with Vaseline and sunflower oil. After ten days, the number of dead varroa was counted. Considering the number of dead varroa in the oxalic acid experiment as 100%, the respective numbers were 60% for either extract preparation, 55% for BAYVAROL and 8% for the control.

Structure (SMILES)	optimal concentration of the stock solution (V. destructor; 10 mg/mL stock solution in acetone, higher concentrations did not enhance activity)	percent mortality of varroa (V. destructor; Fig. 1, 20 or 60 or 100 microliters of 10mg/mL acetone solutions)	time after application of the largest activity difference between costic acid and total extract (V. destructor; Fig. 2, activity as a function of time of application)	acaricidal activity (V. destructor; in vivo vial experiments, fractions and isolated components of D. viscosa extract)	MNTC at 24 h [1]	number of dead varroa, oxalic acid experiment as 100% (varroa)
C=C(C(=O)O)C1CCC2(C)CCCC(=C)C2C1 (stereo not drawn) [costic acid]	60 microliter per vial	increases drastically	8 h	acaricidal activity rested in costic acid	≥ 230 µM	
O=C(O)C(=O)O [oxalic acid]						100%
